From article PMC4642645, “Oxacillin sensitization of methicillin-resistant Staphylococcus aureus and methicillin-resistant Staphylococcus pseudintermedius by antisense peptide nucleic acids in vitro” (BMC Microbiology, 2015)

Assays:
HH-1 [1] = assay: Growth inhibition assay (OD550 growth curves); assay type: cell-based, Staphylococcus pseudintermedius (MRSP); conditions: HH-1, MHB with 6 μg/ml oxacillin, PNA 0–7.5 μM, 35 °C, 6 h, OD550, n = 3
Experimental: (§1) Anti-ftsZ PNAs were tested for effects on growth. Overnight MHB cultures were adjusted to 5 × 10^5 CFU/ml per well of a 96 well plate in MHB supplemented with 6 μg/ml oxacillin as described above. Anti-ftsZ PNA was added to final concentrations of 0, 1, 2.5, 5, 7.5 μM and incubated in a microplate reader (Spectramax 340PC, Molecular Devices) at 35 °C for 6 h. The optical density of the cultures was monitored at 550 nm with readings every 5 min after shaking for 5 s.

HH-1 [2] = assay: Light microscopy of Gram stained cells (cell morphology); assay type: cell-based, Staphylococcus pseudintermedius (MRSP); conditions: HH-1, 2.5 μM PNA, 6 h at 35 °C, 1000 × magnification
Experimental: (§2) Bacterial cultures were treated with anti-ftsZ PNA Z46 in broth as described in the viable count assay. After 6 h at 35 °C, cultures were pelleted, washed once in PBS, and re-suspended in 1/10 of original volume of the culture in PBS. Ten microliter aliquots were heat-fixed, Gram stained, and viewed under a light microscope (Olympus BX60) at 1000 × magnification. Images were captured using the Image-Pro Plus 5.0 (MediaCybernetics), and counting of purple and pink cells were carried out using ImageJ 1.44o (National Institute of Health, USA).

ftsZ mRNA [3] = assay: ftsZ mRNA level by RT-qPCR; assay type: cell-based, Staphylococcus pseudintermedius (MRSP) HH-1; conditions: HH-1, 2.5 μM PNA, no oxacillin, compared to untreated or scrZ-treated cells, n = 3
Experimental: (§3) Growth of cultures in a 96 well plate was monitored by reading the optical density at 550 nm every 5 min, after shaking for 5 s in a microplate reader (Spectramax 340PC, […]). Cultures were harvested when the untreated control culture increased in OD550 ≈ 0.1. Cultures with the same PNA treatment but in different wells across the 96 well plate were pooled for total RNA extraction and DNase I treatment (Ribopure™ Bacteria kit, Life Technologies). RNA was checked for gDNA contamination by qPCR using gyrA primers (Additional file 1: Table S1) and SsoFast™ EvaGreen® Supermix (Bio-Rad) before cDNA synthesis using 50 ng RNA and iScript™ Reverse Transcription Supermix (Bio-Rad). Samples of cDNA were diluted 10-fold and 4 μl used in each qPCR reaction. […]
(§4) Primer pairs for qPCR were designed by Primer3 with a Tm of 60 °C and product sizes of 100–200 bp (Additional file 1: Table S1). […] Primer efficiencies were determined using 10-fold serial dilutions of cDNA (10 pg-1 μg). […]
(§5) Total RNA and cDNA were prepared as described above. Raw Cq values were analysed in qbase + (Biogazelle, Belgium) with user-defined primer efficiencies (Additional file 1: Table S1) and expression stabilities (M value) of each candidate reference gene fabD, gyrA, proC, pta, pyk, rho, sodA, and tpiA were calculated as the average pairwise variation for each gene with all other tested genes. […]

NCTC 13142 [4] = assay: Growth inhibition assay (OD550 growth curves); assay type: cell-based, Staphylococcus aureus (MRSA); conditions: NCTC 13142, MHB with 6 μg/ml oxacillin, PNA 0–7.5 μM, 35 °C, 6 h, OD550, n = 3
Experimental: as §1

NCTC 13142 [5] = assay: Light microscopy of Gram stained cells (cell morphology); assay type: cell-based, Staphylococcus aureus (MRSA); conditions: NCTC 13142, 7.5 μM PNA, 6 h at 35 °C, 1000 × magnification
Experimental: as §2

NCTC 13142 [6] = assay: Oxacillin sensitization viable count assay (CFU on oxacillin plates); assay type: cell-based, Staphylococcus aureus (MRSA); conditions: 6 h, plated on 16 μg/ml oxacillin, n = 3
Experimental: (§6) The viable count assay is more sensitive than the broth assay and was used to assess the effects of PNAs that performed well in the initial screen described above. In the viable count assay, 5 × 10^5 CFU/ml per well of culture was treated either with 2.5, 5 and 7.5 μM of PNA for NCTC 13142, or 1, 2.5 and 5 μM of PNA for HH-1 in MHB at 35 °C for 6 h. […] Agar plates were incubated at 35 °C for 24 h, and dilutions resulting in 30–300 colonies per plate were used to determine the viable count. Experimental repeats were carried out on separate days, and reductions in CFU of treated cultures were normalized to CFU of the untreated control culture on the day. Statistical analysis of CFU reductions was carried out with the paired Student’s t-Test in Microsoft Excel.

ftsZ mRNA [7] = assay: ftsZ mRNA level by RT-qPCR; assay type: cell-based, Staphylococcus aureus (MRSA) NCTC 13142; conditions: NCTC 13142, 7.5 μM PNA, no oxacillin, compared to untreated or scrZ-treated cells, n = 3
Experimental: as §3, §4, §5

HH-1 [8] = assay: Oxacillin sensitization viable count assay (CFU on oxacillin plates); assay type: cell-based, Staphylococcus pseudintermedius (MRSP)
Experimental: as §6

MRSP isolates = conditions: cited from earlier work
Source text: In the MRSP strain HH-1, PNAs were effective at much lower concentrations compared to NCTC 13142. This is presumably due to differences in cell wall structures, as passage across the cell wall is considered to be the main limiting factor for PNA efficacy. Another indication of cell wall differences is that scrambled PNAs affected cell viability of HH-1 without affecting transcript levels of mecA or ftsZ (i.e. non-specific toxic effect).

Row | Substance | Concentration that inhibited growth (HH-1 [1]) [µM] | Cell morphology after Gram stain (HH-1 [2]) | ftsZ mRNA levels, result in words (ftsZ mRNA [3]) | Concentration that inhibited growth (NCTC 13142 [4]) [µM] | Cell morphology after Gram stain (NCTC 13142 [5]) | CFU reduction of NCTC 13142 (NCTC 13142 [6]; 7.5 μM PNA, ratio to untreated control, mean) [%] | Sensitization to oxacillin (CFU reduction), result in words (NCTC 13142 [6]; NCTC 13142, PNA 2.5, 5, 7.5 μM (Z46: 7.5 μM)) | ftsZ mRNA levels, result in words (ftsZ mRNA [7]) | MRSP cells killed by oxacillin (HH-1 [8]; 2.5 μM PNA, 6 h at 35 °C, plated on MH agar with 16 μg/ml oxacillin, relative to untreated control) [%] | Sensitization to oxacillin (CFU reduction), result in words (HH-1 [8]; HH-1, A73 and scrA 1, 2.5, 5 μM, Z46 0.5, 1, 2.5 μM, 6 h, plated on 16 μg/ml oxacillin, n = 3) | MIC against MRSP isolates (MRSP isolates) [µM]
1 | KFFKFFKFFK-eg1-TAACATTTAA-NH2 [Z46, anti-ftsZ PNA (−4 to +6) conjugated to the (KFF)3K peptide] | 2.5 | swollen | reduced | 7.5 | swollen | 87 | significantly sensitized | reduced | 95 | significantly sensitized | –
2 | KFFKFFKFFK [(KFF)3K peptide, cell-penetrating peptide (CPP) used as PNA carrier] | – | – | – | – | – | – | – | – | – | – | 2 to 8
